Data published in US8278072B1, “Method for synthesis of sialylated products using reversible sialylation” (Health Research, Inc., priority 2007, dated 2012).
Marks after values point to notes of the source that are not given here.

Experiments:
ST3Gal-II [1] = biological target: T1, ST3Gal-II (Rattus norvegicus, UniProt Q11205); experiment: Reverse sialylation: transfer of [9-3H]NeuAc from sialylated donor to nucleotide phosphates (WGA-agarose); assay type: biochemical; details: for Incorporation of [9-3H]NeuAc expressed as percent of the CPM incorporated into 5′-CMP: nucleotide phosphate 1 mM as acceptor, donor [1]
T1 construct: purchased Calbiochem
T1 sequence (Q11205 1-350): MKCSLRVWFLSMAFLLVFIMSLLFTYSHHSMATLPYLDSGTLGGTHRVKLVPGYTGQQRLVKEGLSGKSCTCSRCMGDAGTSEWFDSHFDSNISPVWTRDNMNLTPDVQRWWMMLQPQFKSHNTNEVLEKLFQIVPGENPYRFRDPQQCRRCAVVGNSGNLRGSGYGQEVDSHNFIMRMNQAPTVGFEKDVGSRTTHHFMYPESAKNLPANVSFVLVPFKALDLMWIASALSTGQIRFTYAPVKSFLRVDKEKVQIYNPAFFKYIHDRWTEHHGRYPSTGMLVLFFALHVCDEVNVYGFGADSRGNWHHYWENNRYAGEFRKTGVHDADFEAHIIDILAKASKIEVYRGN
Method: FIG. 1. Nucleotide phosphates as acceptors of radioactivity from [9-^3H]NeuAcα2,3Galβ,13 (GlcNAcβ1,6)GalNAcα-O—Al (Al=Allyl) [[9-^3H] [1]] in the presence of ST3Gal-II (scheme-I). Reaction mixtures (RM) with the following composition were incubated at 37° C. for 21 hours in 100 mM NaCa Codylate buffer, pH6.0: i) RM containing 150 μM (0.4 μCi) [[9-^3H] [1]] (donor) along with 0.8 mU ST3Gal-II but no 5″-CMP; and, ii) RM containing [[9-^3H] [1]] and 1.0 mM 5′-CMP, along with ST3Gal-II. Products formed were fractionated on a WGA-agarose column. […] The feasibility of the reverse reaction is well established in literature. Schematic symbols: ♦:sialic acid, ●:Gal, □:GalNAc, ▪:GlcNAc.
All enzymatic sialylation reactions were typically carried out in 100 mM NaCa Codylate buffer pH6.0 in the presence of enzyme, synthetic acceptor (at 7.5 mM or as indicated in each experiment) and 0.2 μCi CMP-[9-^3H]NeuAc (NEN-Dupont, 29 mCi/μmol). The concentration of total CMP-NeuAc was adjusted in individual reactions by supplementing with additional cold CMP-NeuAc. Reaction volume was 20 μl. Products formed were separated using four different chromatography procedures (below). In all cases, the radioactive content of isolated products was determined by using 3a70 scintillation cocktail (Research Products International, Mount Prospect, Ill.), and a Beckman LS6500 scintillation counter.
a) Biogel P2 chromatography: A Biogel P2 column (Fine Mesh; 1.0×116.0 cm) was used with 0.1 M pyridine acetate (pH5.4) as the eluent at room temperature. […] Fractions of 1.0 ml were collected. The bound material was then eluted with 0.5M GlcNAc or 0.2M Gal in the same buffer. […] Calculation of equilibrium constant, Keq: Equilibrium constant was calculated for selected reversible bimolecular reactions that are denoted by:
Cloned and purified rat sialyltransferase α2,3(O)ST (ST3Gal-II) is used in many experiments presented in this manuscript. […] In order to determine if the sialylation reaction is reversible (FIG. 1), [9-^3H]NeuAcα2,3Galβ,13(GlcNAcβ1,6)GalNAcα-O—Al (Al=Allyl) [9-^3H[1]] was prepared using ST3Gal-II in the presence of CMP-[9-^3H]NeuAc and the trisaccharide acceptor Galβ1,3(GlcNAcβ1,6)GalNAcα-O—Al, and the radiolabeled product was isolated using Biogel P2 chromatography. […] Two different reaction mixtures were then prepared with: i) [9-^3H[1]] and ST3Gal-II but without 5″-CMP; and ii) [9-^3H[1]] and 5″-CMP along with ST3Gal-II.

ST3Gal-II [2] = biological target: T1, ST3Gal-II; experiment: Serial transfer of sialic acid from donor via 5′-CMP to acceptors (scheme-II); assay type: biochemical; details: for Incorporation of [9-3H]NeuAc from donor [3], percent of the CPM incorporated into [5]: 150 μM donor [3]
Method: FIG. 3. Serial transfer of sialic acid using scheme-II was followed at increasing concentrations of acceptor D-Fucβ1,3GalNAcα-O-Bn. The donor used was either: i) 0.15 mM [9-^3H]CMP-NeuAc; or, ii) 0.15 mM [9-^3H]NeuAcα2,3Galβ1,3(4-FGlcNAcβ1,6)GalNAcα-O-Bn [9-^3H [2]] in the presence of 2.0 mM 5′-CMP, or iii) [9-^3H]NeuAcα2,3Galβ1,3(6-O-SulfoGlcNAcβ1,6)GalNAcα-O—Al [[9-^3H] [4]] in the presence of 2.0 mM 5′-CMP. In runs where [9-^3H [2]] was donor since both and [2] bind C18 cartridges, control runs were performed in the absence of D-Fucβ1,3GalNAcα-O-Bn to estimate the amount of [9-^3H]CMP-NeuAc formed under the experimental conditions. 80-85% of the radioactivity was transferred to CMP-NeuAc in these runs. The amount of CMP-NeuAc remaining in runs with was then subtracted from CMP-NeuAc radioactivity in the control run to determine the amount of sialylated. To complement this run, studies were also performed with [[9-^3H] […] In these runs, the amount of sialylated was determined by measuring radioactivity retained in the C18-cartridge. a. Equilibrium constant was 5.55 when CMP-[9-^3H]NeuAc was donor. b. ˜10-fold lower acceptor concentration was required for similar extents of reaction when CMP-[9-^3H]NeuAc was donor, compared to core-2 based donors and [4].
We tested the possibility that CMP-NeuAc formed above may be available for transfer to other acceptors using ST3Gal-II (scheme-II, FIG. 3). For this, three radiolabeled donors were prepared using methods described above: two were based on the mucin Core-2 structure ([[9-^3H] [1]] and [9-^3H]NeuAcα2,3Galβ1,3(6-O-SulfoGlcNAcβ1,6)GalNAcα-O—Al [[9-^3H] [4]]) while the third was based on the Globo glycolipid ([9-^3H] [3]). The transfer of [9-^3H]NeuAc from these sialylated donors to various T-hapten (Galβ1,3GalNAcα) and mucin core2-based glycoside acceptors in the presence of 5′-CMP and ST3Gal-II was assessed (Table III). All three […] of ST3Gal-II ([1], [3] and [4]) allowed formation of CMP-[9-^3H]NeuAc, and a diverse array of products.
The transfer of [9-^3H]NeuAc from [[9-^3H][1]] to D-Fucβ1,3GalNAcα-O-Bn in the presence of 5′-CMP and ST3Gal-II increased linearly in the first two hours and it reached saturation at 4 hours (FIG. 12), and thus the data in Table III (4 hours time point) represent equilibrium conditions. […] Further, diverse sialylated products can be formed using the same synthetic sialylated donor.
In order to compare the efficiency of individual reactions of scheme II, independent runs were performed where either 0.15 mM [9-^3H]CMP-NeuAc, 0.15 mM [9-^3H] [2] or 0.15 mM [9-^3H] [4] was the donor, and [5] was the acceptor (FIG. 3). 2 mM 5′-CMP was added in runs with core-2 donors and [4], and thus reverse sialylation of these molecules was feasible. Keq for transfer of sialic acid from CMP-NeuAc to [5] was 5.55 (FIG. 3a). […] (˜6 mM) or [9-^3H[4]] (˜6 mM). Thus, while the two-step mechanism results in lower conversion than CMP-NeuAc alone, the transfer of NeuAc still takes place at an appreciable rate.

[3] = acceptor 2.5 mM, 150 μM donor [1], 1 mM 5′-CMP, 4 hours
[4] = acceptor 2.5 mM, 1 mM 5′-CMP, 4 hours
[5] = acceptor 2.5 mM, 150 μM donor [4], 1 mM 5′-CMP, 4 hours

| Molecule | Incorporation of [9-3H]NeuAc expressed as percent of the CPM incorporated into 5′-CMP (ST3Gal-II [1]) | Incorporation of [9-3H]NeuAc from donor [1], percent of the CPM incorporated into [5] (ST3Gal-II [2]; [3]) | Incorporation of [9-3H]NeuAc from donor [3], percent of the CPM incorporated into [5] (ST3Gal-II [2]; [4]) | Incorporation of [9-3H]NeuAc from donor [4], percent of the CPM incorporated into [5] (ST3Gal-II [2]; [5]) | further results |
| --- | --- | --- | --- | --- | --- |
| Nc1ccn([C@@H]2O[C@H](COP(=O)(O)OP(=O)(O)OP(=O)(O)O)[C@@H](O)[C@H]2O)c(=O)n1 [5′-CTP, cytidine triphosphate] | 1.6% |  |  |  |  |
| D-Fucβ1,3GalNAcα-O-Bn [[5]] |  | 100.0% | 100.0% | 100.0% | Incorporation of [9-3H]NeuAc from donor [1] (ST3Gal-II [2]; [3]): (34569 CPM); Incorporation of [9-3H]NeuAc from donor [3] (ST3Gal-II [2]; acceptor 2.5 mM, 150 μM donor [3] of lower specific radioactivity, 1 mM 5′-CMP, 4 hours): (6224 CPM)***; Incorporation of [9-3H]NeuAc from donor [4] (ST3Gal-II [2]; [5]): (97675 CPM); Keq for transfer of sialic acid from CMP-NeuAc to [5] (ST3Gal-II [2]; donor 0.15 mM CMP-[9-3H]NeuAc): 5.55 |
| CO[C@H]1[C@@H](O)[C@@H](CO)O[C@@H](O[C@H]2[C@H](O)[C@@H](NC(C)=O)[C@H](OC[C@H]3O[C@H](OCc4ccccc4)[C@H](NC(C)=O)[C@@H](O[C@@H]4O[C@H](CO)[C@H](O)[C@H](O)[C@H]4O)[C@H]3O)O[C@@H]2CO)[C@@H]1O [[9], 3-O-MeGalβ1,4GlcNAcβ1,6(Galβ1,3)GalNAcα-O-Bn] |  | 22.4% |  | 10.0% |  |
| Cc1cn([C@H]2C[C@H](O)[C@@H](COP(=O)(O)O)O2)c(=O)[nH]c1=O [5′-TMP] | 1.1% |  |  |  |  |
| [9-^3H]NeuAcα2,3Galβ,13 (GlcNAcβ1,6)GalNAcα-O—Al [[1]] |  |  |  |  | transfer of radioactive [9-3H]NeuAc from donor to 5′-CMP (ST3Gal-II [1]; 150 μM donor, 1.0 mM 5′-CMP): > 90% |
| CC(=O)N[C@H]1[C@@H](OCc2ccccc2)O[C@H](CO)[C@H](O)[C@@H]1O[C@@H]1O[C@H](CO)[C@H](F)[C@H](O)[C@H]1O [[7], 4-FGalβ1,3GalNAcα-O-Bn] |  | 60.8% | 4.1% | 33.3% |  |
| CO[C@@H]1[C@H](O)[C@@H](O)[C@H](O[C@H]2[C@@H](O)[C@@H](CO[C@@H]3O[C@H](CO)[C@@H](O[C@@H]4O[C@H](CO)[C@H](O)[C@H](O)[C@H]4O)[C@H](O)[C@H]3NC(C)=O)O[C@H](OCc3ccccc3)[C@@H]2NC(C)=O)O[C@@H]1CO [[13], Galβ1,4GlcNAcβ1,6(4-O-MeGalβ1,3)GalNAcα-O-Bn] |  | 1.3% |  | 0% |  |
| CC(=O)N[C@H]1[C@H](OC[C@H]2O[C@H](OCc3ccccc3)[C@H](NC(C)=O)[C@@H](O[C@@H]3O[C@H](C)[C@H](O)[C@H](O)[C@H]3O)[C@H]2O)O[C@H](CO)[C@@H](O)[C@@H]1O [[6], D-Fucβ1,3(GlcNAcβ1,6)GalNAcα-O-Bn] |  |  | 106.5% | 96.9% |  |
| Nc1nc2c(ncn2[C@@H]2O[C@H](COP(=O)(O)O)[C@@H](O)[C@H]2O)c(=O)[nH]1 [5′-GMP] | 2.3% |  |  |  |  |
| CO[C@@H]1[C@H](O)[C@@H](O)[C@H](O[C@H]2[C@@H](O)[C@@H](CO)O[C@H](OCc3ccccc3)[C@@H]2NC(C)=O)O[C@@H]1CO [[11], 4-O-MeGalβ1,3GalNAcα-O-Bn] |  | 8.9% | 0.2% | 2.7% |  |
| COC[C@H]1O[C@H](OCc2ccccc2)[C@H](NC(C)=O)[C@@H](O[C@@H]2O[C@H](CO)[C@H](O)[C@H](O)[C@H]2O)[C@H]1O [[8], Galβ1,3(6-O-Me)GalNAcα-O-Bn] |  | 43.0% | 3.3% | 21.5% |  |
| CC(=O)N[C@H]1[C@H](OCc2ccccc2)O[C@H](CO)[C@@H](O[C@@H]2O[C@H](CO)[C@H](O)[C@H](O)[C@H]2O)[C@@H]1O [[12], Galβ1,4GlcNAcβ-O-Bn] |  |  | 0.5% | 1.9% |  |
| Nc1ccn([C@@H]2O[C@H](CO)[C@@H](OP(=O)(O)O)[C@H]2O)c(=O)n1 [3′-CMP] | 2.4% |  |  |  |  |
| Nc1ncnc2c1ncn2[C@@H]1O[C@H](COP(=O)(O)O)[C@@H](O)[C@H]1O [5′-AMP] | 3.0% |  |  |  |  |
